From patent US9655888B2, “Tricyclic alkene derivatives as HIV attachment inhibitors” (priority 2012, dated 2017)
Read-outs that look alike come from different tables or passages of the source.

System: HIV-1 LAI envelope single-round infectious reporter virus
Test: Single-round infectious HIV-1 LAI luciferase reporter virus infection of MT2 cells
Format: cell-based
Conditions: Human immunodeficiency virus 1, MT2, 72 h
Excerpt: • Virus production—Human embryonic Kidney cell line, 293T (HEK 293T), was propagated in Dulbecco's Modified Eagle Medium (Invitrogen, Carlsbad, Calif.) containing 10% fetal bovine serum (FBS, Sigma, St. Louis, Mo.). The human T-cell leukemia cell MT2 (AIDS Research and Reference Reagent Program, Cat. 237) was propagated in RPMI 1640 (Invitrogen, Carlsbad, Calif.) containing 10% fetal bovine serum (FBS, Hyclone, Logan, Utah) • Virus infection—Single-round infectious reporter virus was produced by co-transfecting HEK 293T cells with plasmide expressing the HIV-1 LAI envelope along with a plasmid containing an HIV-1 LAI proviral cDNA with the envelope gene replaced by a firefly luciferase reporter gene (Chen et al., Ref 41). Transfections were performed using lipofectAMINE PLUS reagent as described by the manufacturer (Invitrogen, Carlsbad, Calif.). Experimental Procedure • 1. MT2 cells were plated in black, 384 well plates at a cell density of 5×10^3 cells per well in 25 μl RPMI 1640 containing 10% FBS. • 2. Compound (diluted in dimethylsulfoxide and growth medium) was added to cells at 12.5 μl/well, so that the final assay concentration would be ≦50 nM. • 3. 12.5 μl of single-round infectious reporter virus in Dulbecco's Modified Eagle Medium was added to the plated cells and compound at an approximate multiplicity of infection (MOI) of 0.01, resulting in a final volume of 50 μl per well. • 4. Virus-infected cells were incubated at 37 degrees Celsius in a CO2 incubator and harvested 72 h after infection. • 5. Viral infection was monitored by measuring luciferase expression in the infected cells using a luciferase reporter gene assay kit (Steady-Glo, Promega, Madison, Wis.) as described by the manufacturer. Luciferase activity was then quantified by measuring luminescence using an EnVision Multilabel Plate Readers (PerkinElmer, Waltham, Mass.). • 6. The percent inhibition for each compound was calculated by quantifying the level of luciferase expression in cells infected in the presence of each compound as a percentage of that observed for cells infected in the absence of compound and subtracting such a determined value from 100. • 7. An EC50 provides a method for comparing the antiviral potency of the compounds of the invention. The effective concentration for fifty percent inhibition (EC50) was calculated with the Microsoft Excel Xlfit curve fitting software. For each compound, curves were generated from percent inhibition calculated at 10 different concentrations by using a four parameter logistic model (model 205). Table 1 is the key for the data in Table 2.

[1] = read-out: EC50 Group from Table 1

Row | SMILES | EC50 [nM] | EC50 [1] [nM]
1 | COc1cnc(-n2cnc(C)n2)c2[nH]cc(C(=O)C(=O)N3CCC(=C4c5ccccc5CCc5ccccc54)CC3)c12 [Compound 1009] | 3.72 | < 500
2 | O=C(C(=O)N1CCC(=C2c3ccccc3CCc3ccccc32)CC1)c1c[nH]c2ccccc12 [Compound 1003] | 692 | > 500
3 | COc1cnc(-n2cncn2)c2[nH]cc(C(=O)C(=O)N3CCC(=C4c5ccccc5CCc5ccccc54)CC3)c12 [Compound 1005] | – | < 500
4 | COc1ccc(Br)c2[nH]cc(C(=O)C(=O)N3CCC(=C4c5ccccc5CCc5ccccc54)CC3)c12 [Compound 1006] | 95.3 | < 500
5 | O=C(C(=O)N1CCC(=C2c3ccc(Cl)cc3CCc3cccnc32)CC1)c1c[nH]c2c(Br)ccc(F)c12 [Compound 1008] | – | > 500
6 | COc1cnc(Cl)c2[nH]cc(C(=O)C(=O)N3CCC(=C4c5ccccc5CCc5ccccc54)CC3)c12 [Compound 1004] | – | < 500
7 | COc1cnc(-n2cnc(C)n2)c2[nH]cc(C(=O)C(=O)N3CCC(=C4c5ccc(Cl)cc5CCc5cccnc54)CC3)c12 [Compound 1010] | – | < 500
8 | O=C(C(=O)N1CCC(=C2c3ccccc3CCc3ccccc32)CC1)c1c[nH]c2c(Br)ccc(F)c12 [Compound 1007] | – | > 500
9 | COc1cnc(Cl)c2[nH]cc(C(=O)C(=O)N3CCC(=C4c5ccc(Cl)cc5CCc5cccnc54)CC3)c12 [Compound 1002] | – | < 500
10 | COc1cnc(-n2cnc(C)n2)c2[nH]cc(C(=O)C(=O)N3CCC(=C4c5ccccc5C=Cc5ccccc54)CC3)c12 [Compound 1001] | 0.28 | < 500
